Columns and labels:
[1] = tested on: Monocotyledonous and dicotyledonous weed; assay: Post-emergence test experiment, weed control effect (Table 2); type: in vivo; design: key to weed control effect, Setaria viridis (level) / weed control effect, Rorippa indica (level) / weed control effect, Abutilon theophrasti (level) / weed control effect, Echinochloa crus-galli (level) / weed control effect, Digitaria sanguinalis (level): Level 10: completely dead; Level 9: above 90% growth inhibition rate; Level 8: above 80% growth inhibition rate; Level 7: above 70% growth inhibition rate; Level 6: above 60% growth inhibition rate; Level 5: above 50% growth inhibition rate; Level 4: above 30% growth inhibition rate; Level 3: above 20% growth inhibition rate; Level 2: above 10% growth inhibition rate; Level 1: above 1-10% growth inhibition rate; Level 0: no effect; details: 3 weeks after spraying, greenhouse
Protocol: (§1) Post-emergence test experiment: Monocotyledonous and dicotyledonous weed seeds and main crop seeds (i.e. wheat, corn, rice, soybean, cotton, oilseed, millet and sorghum.) were put into a plastic pot loaded with soil. Then covered with 0.5-2 cm soil, the seeds were allowed to grow in good greenhouse environment. The test plants were treated at 2-3 leaf stage 2-3 weeks after sowing. The test compounds of the invention were dissolved with acetone respectively, then added with 80 tween and diluted by certain amount of water to certain concentration. The solution was sprayed to the plants with a sprayer. Then the plants were cultured for 3 weeks in the greenhouse.

[2] = tested on: main crop (wheat, corn, rice, soybean, cotton, oilseed, millet and sorghum); assay: Post-emergence test experiment, main crops (Table 2); type: in vivo; design: key: Level 10: completely dead; Level 9: above 90% growth inhibition rate; Level 8: above 80% growth inhibition rate; Level 7: above 70% growth inhibition rate; Level 6: above 60% growth inhibition rate; Level 5: above 50% growth inhibition rate; Level 4: above 30% growth inhibition rate; Level 3: above 20% growth inhibition rate; Level 2: above 10% growth inhibition rate; Level 1: above 1-10% growth inhibition rate; Level 0: no effect; details: 3 weeks after spraying, greenhouse
Protocol: as §1

| SMILES | weed control effect, Abutilon theophrasti (level) ([1]; 120 g/ha) | weed control effect, Bidens pilosa (level) ([1]; 120 g/ha) | weed control effect, Digitaria sanguinalis (level) ([1]; 120 g/ha) | weed control effect, Echinochloa crus-galli (level) ([1]; 120 g/ha) | weed control effect, Rorippa indica (level) ([1]; 120 g/ha) | weed control effect, Setaria viridis (level) ([1]; 120 g/ha) | effect on crop, corn (level) ([2]; 120 g/ha) | effect on crop, rice (level) ([2]; 120 g/ha) | effect on crop, wheat (level) ([2]; 120 g/ha) | weed control effect, Abutilon theophrasti (level) ([1]; 30 g/ha) | weed control effect, Bidens pilosa (level) ([1]; 30 g/ha) | weed control effect, Digitaria sanguinalis (level) ([1]; 30 g/ha) | weed control effect, Echinochloa crus-galli (level) ([1]; 30 g/ha) | weed control effect, Rorippa indica (level) ([1]; 30 g/ha) | weed control effect, Setaria viridis (level) ([1]; 30 g/ha) | effect on crop, corn (level) ([2]; 30 g/ha) | effect on crop, rice (level) ([2]; 30 g/ha) | effect on crop, wheat (level) ([2]; 30 g/ha) |
| --- | --- | --- | --- | --- | --- | --- | --- | --- | --- | --- | --- | --- | --- | --- | --- | --- | --- | --- |
| Cc1cc(C)n(Cc2c(S(C)(=O)=O)ccc(C(=O)c3c(C4CC4)nn(C)c3OC(=O)c3cnn(C)c3)c2Cl)n1 [Compound 20] | 6 (Level 6: above 60% growth inhibition rate) | 6 (Level 6: above 60% growth inhibition rate) | 1 (Level 1: above 1-10% growth inhibition rate) | 10 | 4 (Level 4: above 30% growth inhibition rate) | 5 (Level 5: above 50% growth inhibition rate) | 0 | 0 | 0 |  |  |  |  |  |  |  |  |  |
| Cc1ccn(Cc2c(S(C)(=O)=O)ccc(C(=O)c3c(C4CC4)nn(C)c3OC(=O)c3cnn(C)c3)c2Cl)n1 [Compound 21] | 6 (Level 6: above 60% growth inhibition rate) | 6 (Level 6: above 60% growth inhibition rate) | 1 (Level 1: above 1-10% growth inhibition rate) | 10 | 4 (Level 4: above 30% growth inhibition rate) | 3 (Level 3: above 20% growth inhibition rate) | 0 | 0 | 0 |  |  |  |  |  |  |  |  |  |
| Cc1cnn(Cc2c(S(C)(=O)=O)ccc(C(=O)c3c(C4CC4)nn(C)c3OC(=O)c3cnn(C)c3)c2Cl)c1 [Compound 22] | 6 (Level 6: above 60% growth inhibition rate) | 6 (Level 6: above 60% growth inhibition rate) | 1 (Level 1: above 1-10% growth inhibition rate) | 10 | 4 (Level 4: above 30% growth inhibition rate) | 3 (Level 3: above 20% growth inhibition rate) | 0 | 0 | 0 |  |  |  |  |  |  |  |  |  |
| CCOc1c(C(=O)Oc2c(C(=O)c3ccc(S(C)(=O)=O)c(Cn4cc(C)cn4)c3Cl)cnn2C)cnn1C [Compound 23] | 6 (Level 6: above 60% growth inhibition rate) | 6 (Level 6: above 60% growth inhibition rate) | 1 (Level 1: above 1-10% growth inhibition rate) | 10 | 4 (Level 4: above 30% growth inhibition rate) | 3 (Level 3: above 20% growth inhibition rate) | 0 | 0 | 0 |  |  |  |  |  |  |  |  |  |
| Cc1nn(C)cc1C(=O)Oc1c(C(=O)c2ccc(S(C)(=O)=O)c(COCC(F)F)c2Cl)c(C)nn1C [Compound 25] |  |  |  |  |  |  |  |  |  | 7 (Level 7: above 70% growth inhibition rate) | 7 (Level 7: above 70% growth inhibition rate) | 10 | 10 | 5 (Level 5: above 50% growth inhibition rate) | 9 (Level 9: above 90% growth inhibition rate) | 0 | 6 (Level 6: above 60% growth inhibition rate) | 0 |
| CCOCc1c(S(C)(=O)=O)ccc(C(=O)c2c(C)nn(C)c2OC(=O)c2cn(C)nc2C)c1Cl [Compound 27] |  |  |  |  |  |  |  |  |  | 7 (Level 7: above 70% growth inhibition rate) | 7 (Level 7: above 70% growth inhibition rate) | 7 (Level 7: above 70% growth inhibition rate) | 9 (Level 9: above 90% growth inhibition rate) | 5 (Level 5: above 50% growth inhibition rate) | 6 (Level 6: above 60% growth inhibition rate) | 0 | 6 (Level 6: above 60% growth inhibition rate) | 0 |
| COCCOCc1c(S(C)(=O)=O)ccc(C(=O)c2c(C)nn(C)c2OC(=O)c2cn(C)nc2C)c1Cl [Compound 28] |  |  |  |  |  |  |  |  |  | 7 (Level 7: above 70% growth inhibition rate) | 7 (Level 7: above 70% growth inhibition rate) | 7 (Level 7: above 70% growth inhibition rate) | 9 (Level 9: above 90% growth inhibition rate) | 5 (Level 5: above 50% growth inhibition rate) | 5 (Level 5: above 50% growth inhibition rate) | 0 | 6 (Level 6: above 60% growth inhibition rate) | 0 |
| CCc1nn(C)c(OC(=O)c2cn(C)nc2C)c1C(=O)c1ccc(S(C)(=O)=O)c(Cn2nc(C)cc2C)c1Cl [Compound 30] | 6 (Level 6: above 60% growth inhibition rate) | 6 (Level 6: above 60% growth inhibition rate) | 4 (Level 4: above 30% growth inhibition rate) | 8 (Level 8: above 80% growth inhibition rate) | 4 (Level 4: above 30% growth inhibition rate) | 10 | 0 | 0 | 0 |  |  |  |  |  |  |  |  |  |
| CCOCc1c(S(C)(=O)=O)ccc(C(=O)c2c(CC)nn(C)c2OC(=O)c2cn(C)nc2C)c1Cl [Compound 31] |  |  |  |  |  |  |  |  |  | 7 (Level 7: above 70% growth inhibition rate) | 7 (Level 7: above 70% growth inhibition rate) | 10 | 10 | 5 (Level 5: above 50% growth inhibition rate) | 9 (Level 9: above 90% growth inhibition rate) | 0 | 5 (Level 5: above 50% growth inhibition rate) | 0 |
| CCc1nn(C)c(OC(=O)c2cn(C)nc2C)c1C(=O)c1ccc(S(C)(=O)=O)c(COCC(F)(F)F)c1Cl [Compound 32] |  |  |  |  |  |  |  |  |  | 7 (Level 7: above 70% growth inhibition rate) | 7 (Level 7: above 70% growth inhibition rate) | 10 | 10 | 5 (Level 5: above 50% growth inhibition rate) | 10 | 1 (Level 1: above 1-10% growth inhibition rate) | 5 (Level 5: above 50% growth inhibition rate) | 0 |
| C#CCOCc1c(S(C)(=O)=O)ccc(C(=O)c2c(C)nn(C)c2OC(=O)c2cn(C)nc2C)c1Cl [Compound 33] |  |  |  |  |  |  |  |  |  | 7 (Level 7: above 70% growth inhibition rate) | 7 (Level 7: above 70% growth inhibition rate) | 9 (Level 9: above 90% growth inhibition rate) | 9 (Level 9: above 90% growth inhibition rate) | 5 (Level 5: above 50% growth inhibition rate) | 9 (Level 9: above 90% growth inhibition rate) | 1 (Level 1: above 1-10% growth inhibition rate) | 5 (Level 5: above 50% growth inhibition rate) | 0 |

Reference: patent publication US10556888B2, “Pyrazole compounds or salts thereof, preparation methods therefor, herbicidal compositions and use thereof” (QINGDAO KINGAGROOT CHEMICAL COMPOUNDS CO., LTD, priority 2015, dated 2020)
